This note sets out measurements from patent US20100249064A1, “METHODS AND COMPOSITIONS FOR TREATING DISEASES AND CONDITIONS INVOLVING HIGHER MOLECULAR WEIGHT HYALURONAN” (University of Chicago, priority 2007, published 2010).

One test has as its system HABP2. Description: HABP2 protein expression in EC by immunoblotting. It counts as cell-based, human. The following applies: 100 nM HA, EC lysates, immunoblot. As for the experimental part:
Immunoblotting. Proteins in the EC lysates or mouse lung homogenates were solubilized in solubilization buffer, separated on SDS-PAGE, and analyzed by immunoblotting with specific antisera and HRP conjugated secondary antibody with enhanced chemiluminescence detection (Amersham Biosciences).
Treatment with LPS, low and high MW hyaluronan. EC were treated with 1.0 μg/ml LPS, 100 nM HMW-HA (˜1 million Daltons) or 100 nM LMW-HA (˜2,500 Daltons) for 24 hours and EC media and lysates were obtained.
Cell culture preparation and treatment. Human pulmonary microvascular EC (HPMVEC) (Cambrex), grown in EBM-2 complete medium (Cambrex) at 37° C. in a humidified atmosphere of 5% CO2, 95% air, with passages 6-10 used for experimentation will be treated with or without 1.0 μg/ml LPS, 100 nM HMW-HA and/or 100 nM LMW-HA in the presence or absence of exogenous purified recombinant HABP2 polyanion binding domain and/or C1INH (Novus Biologicals), HABP2 and/or C1INH overexpression vector or siRNA (scramble, HABP2, C1INH, PAR-1, PAR-2, PAR-3, PAR-4, tenascin-C or perlecan) or the potent hyaluronidase inhibitor, L-ascorbic acid 6-hexadecanoate (Botzki et al., 2004) (Sigma). Extracellular media and/or treated EC will either be analyzed for protein expression, HABP2 protease activity, hyaluronidase activity or Trans-endothelial Electrical Resistance (TER). […]
(Immunoblotting shows a protein as a band on a membrane.)

For another test, the system named is caveolin-1. Description: Caveolin-1 expression in mouse lung homogenates (immunoblot). Particulars: HMW-HA+LPS. Type of test: in vivo. The method, then:
(§1) Animal Preparation and Treatment. Male C57BL/6J, B6129N2, CD44^−/− or caveolin-1^−/− mice (8-10 weeks, Jackson Laboratories, Bar Harbor, Me.) were anesthetized with intraperitoneal ketamine (150 mg/kg) and acetylpromazine (15 mg/kg) before exposure of the right internal jugular vein via neck incision. LPS (2.5 mg/kg) or water (control) were instilled intratracheally. Four hours later, mice receive high MW HA (1.5 mg/kg) or water control through the internal jugular vein. The animals were allowed to recover for 24 hours after LPS before bronchioalveolar lavage protein and cytokine concentration and/or lung immunohistochemistry/immunoblot analysis (Peng et al., 2004).
Immunoblot analysis of CD44 and Caveolin-1 expression in control, LPS- and HA-treated mouse lung homogenates. CD44 is highly likely to be important in lung disease as CD44−/− mice develop lung fibrosis, inflammatory cell recruitment and accumulation of hyaluronan fragments at sites of lung injury (Teder et al., 2002). […] Caveolin-1 can be differentially regulated in various models of acute lung injury (ALI). Monocrotaline-induced rodent pulmonary hypertension results in a loss of lung EC caveolin-1 expression (Mathew et al., 2004). In contrast, there is no change in pulmonary caveolin-1 expression in lipopolyscaaharide (LPS)-induced sepsis with lung injury (Garrean et al., 2006). […]

Test [1] deals with LPS-induced murine lung vascular permeability. Description: LPS-induced murine lung vascular permeability, bronchioalveolar lavage (BAL) protein and cytokines. It counts as in vivo, mouse. The following applies: for LPS-induced pulmonary hyper-permeability (BAL protein concentration): wildtype C57BL/6J mice, LPS 2.5 mg/kg intratracheally, HMW-HA 1.5 mg/kg or HGF 50 μg/kg intravenously 4 hours after LPS, BAL at 24 hours. The method, then:
Animal Preparation and Treatment—Male C57BL/6J and CD44 knockout mice (8-10 weeks, Jackson Laboratories, Bar Harbor, Me.) were anesthetized with intraperitoneal ketamine (150 mg/kg) and acetylpromazine (15 mg/kg) according to approved protocols. LPS (2.5 mg/kg) or saline (control) were instilled intratracheally and four hours later, HGF (50 μg/kg) or saline control delivered intravenously through the internal jugular vein. The animals were allowed to recover for 24 h followed by bronchioalveolar lavage protein analysis and/or lung immunohistochemistry.
Determination of Bronchioalveolar Lavage Protein Concentration—Bronchioalveolar lavage (BAL) was performed by an intratracheal injection of 1 cc of Hank's balanced salt solution followed by gentle aspiration. The recovered fluid was processed for protein concentration (BCA Protein Assay Kit; Pierce Chemical Co., Rockford, Ill.) as described (Su et al., 2004).
Animals. Male C57BL/6J mice, CD44 knockout mice, Caveolin-1 knockout mice (8-10 weeks, Jackson Laboratories, Bar Harbor, Me.) were anesthetized with intraperitoneal ketamine (150 mg/kg) and acetylpromazine (15 mg/kg) according to approved protocols. LPS (2.5 mg/kg) or saline (control) were instilled intratracheally and four hours later, HMW-HA (1.5 mg/kg) or saline control delivered intravenously through the internal jugular vein. The animals were allowed to recover for 24 hours followed by bronchioalveolar lavage protein analysis and/or lung immunohistochemistry.
Determination of protein concentration. Total protein concentration. TGF-alpha concentration. TGF-beta1 concentration. Bronchioalveolar lavage (BAL) was performed by an intratracheal injection of 1 cc of Hank's balanced salt solution followed by gentle aspiration. The recovered fluid was processed for protein concentration (BCA Protein Assay Kit; Pierce Chemical Co., Rockford, Ill.) or used to determine TNF-α and TGF-β1 concentrations using quantitative sandwich enzyme immunoassays (R & D Systems, Minneapolis, Minn.).
as §1
Determination of Bronchoavleolar Lavage Protein and Cytokine Concentration. Bronchioalveolar lavage (BAL) was performed by an intratracheal injection of 1 cc of Hank's balanced salt solution followed by gentle aspiration. The recovered fluid was processed for protein concentration (BCA Protein Assay Kit; Pierce Chemical Co., Rockford, Ill.) (Peng et. al., 2004). Cytokines (IL-6, TNFalpha) were measured using a Quantikine sandwich ELISA kit (R & D Systems).

The mark [2] stands for this setting: wild type mice, LPS 2.5 mg/kg, HMW-HA 1.5 mg/kg i.v. after 4 hours.

“Also recorded” adds a separate entry of the source.

Turning to hyaluronan [HMW-HA], the “HABP2 protein expression in EC” value in the test with HABP2 (listed as high MW hyaluronan) was “reduced”. Also, the “caveolin-1 expression in mouse lungs” value with caveolin-1 was “did not significantly alter caveolin-1 expression”. Also, the “protective effect on LPS-induced pulmonary hyper-permeability (BAL) in knockout mice” value in test [1] (CD44 knockout (and, where stated, Caveolin-1 knockout) mice, same regimen) is “markedly attenuated in the CD44 knockout mouse; also recorded: did not protect from LPS-induced ALI in CD44 and Caveolin-1 knockout mice; also recorded: protection was blocked in the CD44 knockout mouse; also recorded: but not the CD44 knockout”. Further, in test [1] (setting [2]), the “TGF-alpha concentration in BAL fluids” value is given as “reduced the enhancing effect of LPS”. For the same substance, the “TGF-beta1 concentration in BAL fluids” value in test [1] (setting [2]) was “reduced the enhancing effect of LPS”. Moreover, the “LPS-induced pulmonary hyper-permeability (BAL protein concentration)” value in test [1] was “pulmonary hyper-permeability was attenuated; also recorded: significant difference (p<0.05) between LPS and HMW-HA+LPS treatment in the wildtype”; in test [1] (listed as HWM-HA), “protected from LPS-induced vascular leakiness in vivo”; in test [1] (listed as High MW hyaluronan), “reduced the enhancing effect of LPS on BAL protein concentration”; in test [1] (listed as high MW HA) it was “attenuated the vascular hyper-permeability”.

In the case of hyaluronan [LMW-HA, reference compound], in the test on HABP2 (listed as low molecular weight (MW) hyaluronan), the “HABP2 protein expression in EC” value is “significantly enhanced”.
